Here are results for 3 compounds from patent US20210244773A1, “DENTAL PULP STEM CELLS AND USES THEREOF” (priority 2018, published 2021).

“And” between values parts separate entries of the source, which are not always exact repeats. Equal entries are not always repeated.

Holding throughout (assay type): cell-based, human
In one data set the test system is DPSC. Nature of the data set: DPSC neuronal differentiation with TNF-alpha, lipoxin A4 or resolvin D1, flow cytometry (Example 3). The note with it: for TNF-alpha-induced decrease in β III-tubulin expression: FIG. 6, both 10 and 100 nM, p<0.05; for neuronal differentiation of DPSC without TNF-alpha: added alone at either dose (10 or 100 nM), data not shown. Here is the method:
DPSC were isolated from the teeth of 7 healthy donors extracted during routine dental care. Samples were selected from our tooth biorepository based on the following donor characteristics: absence of medical comorbidities, no active medication use (aside from vitamin supplements), and absence of periodontal disease or tooth decay. The extracted pulp were plated and then cultured in basal medium, DMEM/F12+15% FBS supplemented with 100 U/mL non-essential amino acids (Gibco Life Technologies), 100 U/mL penicillin and streptomycin, and glutamine (Gibco Life Technologies). Outgrowing fibroblast-like cells appeared after 3-4 days and at that point the pulp was replated. The outgrowing cells were passaged after reaching 80% confluence and passage 4 was used for all experiments. Cells were seeded in duplicate with 2×10^4 cells/well. Neuronal differentiation was induced by replacing DMEM/F12+15% FBS culture media with neuronal differentiation media (NeuroCult NS-A Differentiation Kit-Human, StemCell Technologies Inc., Tukwila, Wash., USA) 48 hours after seeding. Cells were cultured under neuronal induction conditions for up to 21 days with culture media changed twice a week.
Varying concentrations of TNF-alpha (1, 10, 25, and 100 ng/mL, PeproTech, Rocky Hill, N.J., USA), lipoxin A4 (10 and 100 nM, Cayman Chemical, Ann Arbor, Mich., […], Cayman Chemical, Ann Arbor, Mich., USA) were added to the culture of both differentiated and non-differentiated cells starting 48 hours after seeding. In some experiments cells were treated with both TNF-alpha and lipoxin A4 or resolvin D1.
Expression of stem cell and neuronal cell markers was determined by flow cytometry. […] Cells were incubated for 1 hour at room temperature with the following primary antibodies against stem cell markers: rabbit anti-CD44 (Abcam, 1:30) and rabbit anti-OCT4 (Abcam, 1:200) and neuronal markers: rabbit anti-nestin (Abcam, 1:100), rabbit anti-doublecortin (Abcam, 1:50), mouse anti-β III-tubulin (Abcam, 1:100), and rabbit anti-NeuN (Abcam, 1:100). Fluorescence was achieved by incubating with secondary antibodies (Life Tech, Carlsbad, Calif., goat anti-rabbit IgG or goat anti-mouse IgG, dilution 1:500) for 1 hour at room temperature in a dark room. Cells were then subjected to flow cytometry and the percentage of cells expressing each marker was calculated.
Each analysis was performed in duplicate using cells from all donors. Median and interquartile ranges were calculated for each condition. Mann-Whitney tests were used for all statistical analyses; p<0.05 was considered significant.
Background: Flow cytometry measures light scatter and fluorescence of single cells or particles in a stream.

A further data set concerns dental pulp stem cells. Nature of the data set: MTT metabolic activity assay of dental pulp stem cells. How it is done: The metabolic activity of cells was determined by 3-(4,5-dimethylthiazol-2-yl)-2,5-diphenyltetrazolium bromide (MTT) assay at various time points to assess TNF-α toxicity on dental pulp stem cells. Cells were incubated for 4 hours in 5 mg/mL thiazolyl blue tetrazolium bromide (Sigma Aldrich, St. Louis, Mo., USA), the precipitate was suspended with 2-propanol (Sigma Aldrich, St. Louis, Mo., USA), and absorbance was determined in triplicate.
A general note: Tetrazolium assays rely on reduction of a dye to a coloured formazan, in cell work by metabolically active cells.

Data set [1] concerns DPSC expression of IL-6, IL-8, IL-1β. Nature of the data set: Inflammatory cytokine gene expression in DPSC by real-time PCR. The note with it: all doses (1, 10, 25, 100 ng/ml), 24 hours. How it is done:
Induction of inflammatory cytokine gene expression was determined by real-time PCR to optimize TNF-α treatment conditions. Total RNA was extracted from cells using Trizol (Life Technologies). 10 μL total RNA was reverse transcribed to cDNA using iScript cDNA Synthesis Kit (Bio-Rad, Hercules, Calif., USA). 1 μL cDNA used as template for real-time PCR amplification reactions using the iQ SYBR Green Supermix (Bio-Rad) in combination with […] of each gene-specific primer, according to manufacturer's instructions. Glyceraldehyde 3-phosphate dehydrogenase (GAPDH) was used as endogenous control. PCR reactions were conducted in duplicate using the following conditions: initial denaturation for 3 min at 95° C. followed by 40 cycles of 15 sec denaturation at 95° C. and 60 sec annealing at 60° C. Relative quantification was used for statistical analyses. The following primers were used: […]
In general terms: In qPCR the cycle at which signal appears reflects the starting amount.

Setting [2] is: 25 ng/ml TNF-alpha, 21 days of differentiation, versus absence of TNF-alpha.

Take `CCCCC[C@H](O)/C=C/C=C\C=C\C=C\[C@@H](O)[C@@H](O)CCCC(=O)O` [lipoxin A4]: in the data set with DPSC (25 ng/ml TNF-alpha + 10 nM lipoxin A4), the “β III-tubulin expression (percent of cells)” value worked out at 59%. For the same compound, the “increase in β III-tubulin expression versus TNF-alpha alone” value in the data set with DPSC (25 ng/ml TNF-alpha + 10 nM lipoxin A4, p=0.02) is 84%. Besides, the “β III-tubulin expression versus TNF-alpha alone” value in the data set with DPSC (25 ng/ml TNF-alpha + lipoxin A4 100 nM, p=0.03) is on record as “Results were similar”. For the same compound, in the data set on DPSC, the “TNF-alpha-induced decrease in β III-tubulin expression” value is “mitigated” and the “neuronal differentiation of DPSC without TNF-alpha” value was “no reduction or improvement”.

As for `CC/C=C\C[C@H](O)/C=C/C=C\C=C\C=C\[C@@H](O)[C@@H](O)C/C=C\CCC(=O)O` [resolvin D1], in the data set on DPSC (25 ng/ml TNF-alpha + 100 nM resolvin D1, p=0.02), the “increase in β III-tubulin expression versus TNF-alpha alone” value came out at 78%. In addition, the “β III-tubulin expression (percent of cells)” value in the data set with DPSC (25 ng/ml TNF-alpha + 100 ng/ml resolvin D1) is reported as 57%. Further, the “β III-tubulin expression versus TNF-alpha alone” value with DPSC (25 ng/ml TNF-alpha + resolvin D1 10 nM, p=0.09) is listed as “approached significance”. In the data set on DPSC, the “TNF-alpha-induced decrease in β III-tubulin expression” value is “mitigated” and the “neuronal differentiation of DPSC without TNF-alpha” value was “no reduction or improvement”.

Take TNF-alpha: in the data set on DPSC (25 ng/ml TNF-alpha, 21 days of differentiation), the “cells expressing the early marker doublecortin” value is recorded as “non-significant increase”. Also, in the data set with DPSC (setting [2]), the “expression of early neuronal marker nestin” value is “no difference”, the “expression of stem cell marker CD44” value is given as “no difference” and the “expression of stem cell marker OCT 3/4” value is recorded as “no difference”. Further, the “decrease in differentiated cells expressing β III-tubulin” value in the data set on DPSC (25 ng/ml TNF-alpha, neuronal differentiation, decrease) is 70% and 59%. In the data set with DPSC (FIG. 6, presence of TNF-alpha), the β-III tubulin expression entry was “significant decrease”. For the same compound, the “β III-tubulin expression (percent of cells)” value in the data set with DPSC (neural induction with 25 ng/ml TNF-alpha alone) is given as 32%. In the data set with dental pulp stem cells (TNF-alpha treatment), the “toxicity to DPSC (succinic dehydrogenase metabolic activity)” value is given as “not toxic”. The “metabolic activity (MTT)” value in the data set on dental pulp stem cells (neural induction with 25 ng/ml or 100 ng/ml TNF-alpha, 10 days, versus absence of TNF-alpha) was “significantly greater metabolic activity”. Moreover, the “DPSC expression of IL-6” value in data set [1] (FIG. 4A) was “significant increases”. Besides, the “DPSC expression of IL-8” value in data set [1] (FIG. 4B) is “significant increases”. Besides, in data set [1] (FIG. 4C), the “DPSC expression of IL-1β” value is on record as “significant increases”.
